From patent US20080318939A1, “METHODS FOR TREATING OPHTHALMIC DISORDERS” (priority 2007, published 2008)

How the values were obtained:
[1] = permeation of the blood-brain barrier
leukemia cells = test: inhibition of proliferation of leukemia cells; format: cell-based; details: cells associated with a cell proliferation condition
normal bone marrow cells = test: inhibition of proliferation of normal bone marrow cells; format: cell-based; details: specificity

CC(=O)N1CCN(c2nc3c(cc2F)c(=O)c(C(=O)NCCN2CCCC2)c2n(C)c4ccccc4n32)CC1 [TA4-1 A]
blood-brain barrier permeation [1]: significantly permeates the blood-brain barrier

CN1CCCC1CCNC(=O)c1cn2c3c(c(N4CCC(c5cnccn5)C4)c(F)cc3c1=O)Oc1cc3ccccc3cc1-2 (stereo not drawn) [TA1-1A]
inhibition of leukemia cells (leukemia cells): inhibits leukemia cells | inhibition of normal bone marrow cells (normal bone marrow cells): without inhibiting normal bone marrow cells
